Source: US10759813B2, “Neprilysin inhibitors” (THERAVANCE BIOPHARMA R&D IP, LLC, priority 2010, dated 2020)

target: human neprilysin (EC 3.4.24.11; NEP) (Homo sapiens (Human), UniProt P08473); assay: In vitro enzyme inhibition assay at human NEP (fluorogenic peptide substrate); format: biochemical; settings: pKi values at human NEP, recombinant human NEP
Summary of the method: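 pKi derived from apparent Ki fitted as v=v0/[1+(I/K′)] to Ex320/Em405 fluorescence. Compounds (pM to 10 μM) sat with recombinant human enzyme 30 min at 37 °C before 10 μM fluorogenic Mca peptide was added in HEPES pH 7.5 buffer with 10 μM ZnSO4; 20 min reaction, acetic acid quench.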

human neprilysin (EC 3.4.24.11; NEP), sequence (P08473 52-750): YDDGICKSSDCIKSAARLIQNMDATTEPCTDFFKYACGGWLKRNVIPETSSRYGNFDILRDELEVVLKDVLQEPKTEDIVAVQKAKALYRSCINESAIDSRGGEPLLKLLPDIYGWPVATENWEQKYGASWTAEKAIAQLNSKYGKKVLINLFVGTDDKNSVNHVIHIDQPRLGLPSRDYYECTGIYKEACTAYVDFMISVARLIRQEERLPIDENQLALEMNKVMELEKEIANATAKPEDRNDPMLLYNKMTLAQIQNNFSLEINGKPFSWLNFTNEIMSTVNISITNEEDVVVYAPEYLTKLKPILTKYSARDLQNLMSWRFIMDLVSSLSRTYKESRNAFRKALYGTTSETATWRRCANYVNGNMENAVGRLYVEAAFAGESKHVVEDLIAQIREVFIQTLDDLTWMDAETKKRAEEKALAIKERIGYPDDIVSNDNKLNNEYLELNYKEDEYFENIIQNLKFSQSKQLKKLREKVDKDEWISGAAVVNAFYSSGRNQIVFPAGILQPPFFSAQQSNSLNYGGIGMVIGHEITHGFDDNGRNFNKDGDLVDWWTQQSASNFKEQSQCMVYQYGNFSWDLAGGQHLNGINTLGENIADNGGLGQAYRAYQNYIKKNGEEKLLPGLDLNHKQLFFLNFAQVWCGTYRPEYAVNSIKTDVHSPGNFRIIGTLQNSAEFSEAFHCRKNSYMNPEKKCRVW

Structure (SMILES)	Ki	pKi
O=C(N[C@H](Cc1ccc(-c2ccccc2)cc1)CC(O)C(=O)O)c1cc(C(=O)O)n(Cc2ccccc2Cl)n1 (stereo partly drawn) [Example 15-9, 5-((R)-1-Biphenyl-4-ylmethyl-3-carboxy-3-hydroxy-propylcarbamoyl)-2-(2-chlorobenzyl)-2H-pyrazole-3-carboxylic acid]	1.26 to 10 nM	
O=C(N[C@H](Cc1ccc(-c2ccccc2)cc1)CC(O)C(=O)O)c1cc(C(=O)O)n(Cc2cc(F)ccc2Cl)n1 (stereo partly drawn) [Example 15-10, 5-((R)-1-Biphenyl-4-ylmethyl-3-carboxy-3-hydroxy-propylcarbamoyl)-2-(2-chloro-5-fluorobenzyl)-2H-pyrazole-3-carboxylic acid]	1.26 to 10 nM	
O=C(N[C@H](Cc1ccc(-c2ccccc2)cc1)CC(O)C(=O)O)c1cc(C(=O)O)n(Cc2cc(F)cc(Cl)c2)n1 (stereo partly drawn) [Example 15-11, 5-((R)-1-Biphenyl-4-ylmethyl-3-carboxy-3-hydroxy-propylcarbamoyl)-2-(3-chloro-5-fluorobenzyl)-2H-pyrazole-3-carboxylic acid]	1.26 to 10 nM	
O=C(N[C@H](Cc1ccc(-c2ccccc2)cc1)CC(O)C(=O)O)c1cc(C(=O)O)n(Cc2ccc(Cl)c(OC(F)(F)F)c2)n1 (stereo partly drawn) [Example 15-12, 5-((R)-1-Biphenyl-4-ylmethyl-3-carboxy-3-hydroxy-propylcarbamoyl)-2-(4-chloro-3-trifluoromethoxybenzyl)-2H-pyrazole-3-carboxylic acid]	12.6 to 100 nM	
O=C(N[C@H](Cc1ccc(-c2ccccc2)cc1)CC(O)C(=O)O)c1cc(C(=O)O)n(Cc2ccc(Cl)cc2F)n1 (stereo partly drawn) [Example 15-13, 5-((R)-1-Biphenyl-4-ylmethyl-3-carboxy-3-hydroxy-propylcarbamoyl)-2-(4-chloro-2-fluorobenzyl)-2H-pyrazole-3-carboxylic acid]	1.26 to 10 nM	
O=C(N[C@H](Cc1ccc(-c2ccccc2)cc1)CC(O)C(=O)O)c1cc(C(=O)O)n(Cc2ccc(F)c(Cl)c2)n1 (stereo partly drawn) [Example 15-14, 5-((R)-1-Biphenyl-4-ylmethyl-3-carboxy-3-hydroxy-propylcarbamoyl)-2-(3-chloro-4-fluorobenzyl)-2H-pyrazole-3-carboxylic acid]	1.26 to 10 nM	
O=C(N[C@H](Cc1ccc(-c2ccccc2)cc1)CC(O)C(=O)O)c1cc(C(=O)O)n(Cc2ccc(Cl)cc2)n1 (stereo partly drawn) [Example 15-15, 5-((R)-1-Biphenyl-4-ylmethyl-3-carboxy-3-hydroxy-propylcarbamoyl)-2-(4-chlorobenzyl)-2H-pyrazole-3-carboxylic acid]	1.26 to 10 nM	
O=C(N[C@H](Cc1ccc(-c2ccccc2)cc1)CC(O)C(=O)O)c1cc(C(=O)O)n(Cc2c(F)ccc(Cl)c2F)n1 (stereo partly drawn) [Example 15-16, 5-((R)-1-Biphenyl-4-ylmethyl-3-carboxy-3-hydroxy-propylcarbamoyl)-2-(3-chloro-2,6-difluorobenzyl)-2H-pyrazole-3-carboxylic acid]	1.26 to 10 nM	
COc1cccc(Cn2nc(C(=O)N[C@H](Cc3ccc(-c4ccccc4)cc3)CC(O)C(=O)O)cc2C(=O)O)c1 (stereo partly drawn) [Example 15-17, 5-((R)-1-Biphenyl-4-ylmethyl-3-carboxy-3-hydroxy-propylcarbamoyl)-2-(3-methoxy-benzyl)-2H-pyrazole-3-carboxylic acid]	12.6 to 100 nM	
Cc1cc(C(=O)N[C@H](Cc2ccc(-c3ccccc3)cc2)CC(O)C(=O)O)n[nH]1 (stereo partly drawn) [Example 15-19, (R)-5-Biphenyl-4-yl-2-hydroxy-4-[(5-methyl-1H-pyrazole-3-carbonyl)amino]pentanoic acid]	12.6 to 100 nM	
O=C(N[C@H](Cc1ccc(-c2ccccc2)cc1)C[C@@H](O)C(=O)O)c1cc(-c2ccncc2)[nH]n1 [Example 15-20, (2R,4R)-5-Biphenyl-4-yl-2-hydroxy-4-[(5-pyridin-4-yl-1H-pyrazole-3-carbonyl)-amino]-pentanoic acid]	1.26 to 10 nM	
O=C(N[C@H](Cc1ccc(-c2ccccc2)cc1)C[C@@H](O)C(=O)O)c1cc(-c2cccnc2)[nH]n1 [Example 15-21, (2R,4R)-5-Biphenyl-4-yl-2-hydroxy-4-[(5-pyridin-3-yl-1H-pyrazole-3-carbonyl)-amino]-pentanoic acid]		≥9.0
O=C(N[C@H](Cc1ccc(-c2ccccc2)cc1)CC(O)C(=O)O)c1cc(-c2cnccn2)[nH]n1 (stereo partly drawn) [Example 15-22, (R)-5-Biphenyl-4-yl-2-hydroxy-4-[(5-pyrazin-2-yl-1H-pyrazole-3-carbonyl)amino]-pentanoic acid]	1.26 to 10 nM	
Cn1cc(-c2cc(C(=O)N[C@H](Cc3ccc(-c4ccccc4)cc3)CC(O)C(=O)O)n[nH]2)cn1 (stereo partly drawn) [Example 15-23, (R)-5-Biphenyl-4-yl-2-hydroxy-4-[(1′-methyl-2H, 1′H-[3,4′]bipyrazolyl-5-carbonyl)amino]-pentanoic acid]	12.6 to 100 nM	
O=C(N[C@H](Cc1ccc(-c2ccccc2)cc1)CC(O)C(=O)O)c1cc(-c2ccccc2Cl)[nH]n1 (stereo partly drawn) [Example 15-24, (R)-5-Biphenyl-4-yl-4-{[5-(2-chlorophenyl)-1H-pyrazole-3-carbonyl]amino}-2-hydroxy-pentanoic acid]	1.26 to 10 nM	
O=C(N[C@H](Cc1ccc(-c2ccccc2)cc1)C[C@@H](O)C(=O)O)c1cc(-c2cccc(Cl)c2)[nH]n1 [Example 15-25, (2R,4R)-5-Biphenyl-4-yl-4-{[5-(3-chlorophenyl)-1H-pyrazole-3-carbonyl]-amino}-2-hydroxy-pentanoic acid]		≥9.0
O=C(N[C@H](Cc1ccc(-c2ccccc2)cc1)C[C@@H](O)C(=O)O)c1cc(-c2ccc(Cl)cc2Cl)[nH]n1 [Example 15-26, (2R,4R)-5-Biphenyl-4-yl-4-{[5-(2,4-dichlorophenyl)-1H-pyrazole-3-carbonyl]-amino}-2-hydroxy-pentanoic acid]		≥9.0
O=C(N[C@H](Cc1ccc(-c2ccccc2)cc1)C[C@@H](O)C(=O)O)c1cc(-c2cc(Cl)ccc2Cl)[nH]n1 [Example 15-27, (2R,4R)-5-Biphenyl-4-yl-4-{[5-(2,5-dichlorophenyl)-1H-pyrazole-3-carbonyl]-amino}-2-hydroxy-pentanoic acid]		≥9.0
O=C(N[C@H](Cc1ccc(-c2ccccc2)cc1)C[C@@H](O)C(=O)O)c1cc(-c2ccccc2O)[nH]n1 [Example 15-28, (2R,4R)-5-Biphenyl-4-yl-2-hydroxy-4-{[5-(2-hydroxy-phenyl)-1H-pyrazole-3-carbonyl]-amino}-pentanoic acid]		≥9.0
O=C(N[C@H](Cc1ccc(-c2ccccc2)cc1)C[C@@H](O)C(=O)O)c1cc(-c2ccccc2O)n(CC(O)CO)n1 (stereo partly drawn) [Example 15-30, (2R,4R)-5-Biphenyl-4-yl-4-{[1-(2,3-dihydroxy-propyl)-5-(2-hydroxy-phenyl)-1H-pyrazole-3-carbonyl]-amino}-2-hydroxy-pentanoic acid]		≥9.0
CC(=O)Nc1cccc(-c2cc(C(=O)N[C@H](Cc3ccc(-c4ccccc4)cc3)CC(O)C(=O)O)n[nH]2)c1 (stereo partly drawn) [Example 15-31, (R)-4-{[5-(3-Acetylamino-phenyl)-1H-pyrazole-3-carbonyl]amino}-5-biphenyl-4-yl-2-hydroxypentanoic acid]	1.26 to 10 nM	
COc1ccccc1C(=O)Nc1cc(C(=O)N[C@H](Cc2ccc(-c3ccccc3)cc2)C[C@@H](O)C(=O)O)n[nH]1 [Example 15-32, (2R,4R)-5-Biphenyl-4-yl-2-hydroxy-4-{[5-(2-methoxy-benzoylamino)-1H-pyrazole-3-carbonyl]-amino}-pentanoic acid]	1.26 to 10 nM	
O=C(N[C@H](Cc1ccc(-c2ccccc2)cc1)C[C@@H](O)C(=O)O)c1cc(-c2ccccc2)[nH]n1 [Example 15-33, (2R,4R)-5-Biphenyl-4-yl-2-hydroxy-4-[(5-phenyl-1H-pyrazole-3-carbonyl)-amino]-pentanoic acid]		≥9.0
Cn1nc(C(=O)N[C@H](Cc2ccc(-c3ccccc3)cc2)CC(O)C(=O)O)cc1-c1ccccc1 (stereo partly drawn) [Example 15-34, (R)-5-Biphenyl-4-yl-2-hydroxy-4-[(1-methyl-5-phenyl-1H-pyrazole-3-carbonyl)amino]-pentanoic acid]	1.26 to 10 nM	
O=C(O)Cn1nc(C(=O)N[C@H](Cc2ccc(-c3ccccc3)cc2)C[C@@H](O)C(=O)O)cc1-c1ccccc1 [Example 15-35, (2R,4R)-5-Biphenyl-4-yl-4-[(1-carboxymethyl-5-phenyl-1H-pyrazole-3-carbonyl)-amino]-2-hydroxy-pentanoic acid]		≥9.0
O=C(O)CCn1nc(C(=O)N[C@H](Cc2ccc(-c3ccccc3)cc2)C[C@@H](O)C(=O)O)cc1-c1ccccc1 [Example 15-36, (2R,4R)-5-Biphenyl-4-yl-4-{[1-(2-carboxy-ethyl)-5-phenyl-1H-pyrazole-3-carbonyl]-amino}-2-hydroxy-pentanoic acid]	1.26 to 10 nM	
O=C(N[C@H](Cc1ccc(-c2ccccc2)cc1)CC(O)C(=O)O)c1cc(-c2ccco2)[nH]n1 (stereo partly drawn) [Example 15-37, (R)-5-Biphenyl-4-yl-4-[(5-furan-2-yl-1H-pyrazole-3-carbonyl)amino]-2-hydroxy-pentanoic acid]	1.26 to 10 nM	
O=C(N[C@H](Cc1ccc(-c2ccccc2)cc1)CC(O)C(=O)O)c1cc(-c2ccc3ccccc3c2)[nH]n1 (stereo partly drawn) [Example 15-38, (R)-5-Biphenyl-4-yl-2-hydroxy-4-[(5-naphthalen-2-yl-1H-pyrazole-3-carbonyl)amino]-pentanoic acid]	1.26 to 10 nM	
O=C(N[C@H](Cc1ccc(-c2ccccc2)cc1)CC(O)C(=O)O)c1cc(-c2ccc(-c3ccccc3)cc2)[nH]n1 (stereo partly drawn) [Example 15-39, (R)-5-Biphenyl-4-yl-4-[(5-biphenyl-4-yl-1H-pyrazole-3-carbonyl)amino]-2-hydroxy-pentanoic acid]	12.6 to 100 nM	
O=C(N[C@H](Cc1ccc(-c2ccccc2)cc1)CC(O)C(=O)O)c1cc(-c2ccc(Cl)cc2)[nH]n1 (stereo partly drawn) [Example 15-40, (R)-5-Biphenyl-4-yl-4-{[5-(4-chlorophenyl)-1H-pyrazole-3-carbonyl]amino}-2-hydroxy-pentanoic acid]	1.26 to 10 nM	
